{"source": "patent US20090264421A1", "about": "(priority 2007, published 2009)", "origin": "cited, not measured here", "key": {"TrxR1": {"target": "T1, TrxR1 (Homo sapiens, UniProt Q16881)", "T1 sequence (Q16881 1-499 isoform Q16881-5)": "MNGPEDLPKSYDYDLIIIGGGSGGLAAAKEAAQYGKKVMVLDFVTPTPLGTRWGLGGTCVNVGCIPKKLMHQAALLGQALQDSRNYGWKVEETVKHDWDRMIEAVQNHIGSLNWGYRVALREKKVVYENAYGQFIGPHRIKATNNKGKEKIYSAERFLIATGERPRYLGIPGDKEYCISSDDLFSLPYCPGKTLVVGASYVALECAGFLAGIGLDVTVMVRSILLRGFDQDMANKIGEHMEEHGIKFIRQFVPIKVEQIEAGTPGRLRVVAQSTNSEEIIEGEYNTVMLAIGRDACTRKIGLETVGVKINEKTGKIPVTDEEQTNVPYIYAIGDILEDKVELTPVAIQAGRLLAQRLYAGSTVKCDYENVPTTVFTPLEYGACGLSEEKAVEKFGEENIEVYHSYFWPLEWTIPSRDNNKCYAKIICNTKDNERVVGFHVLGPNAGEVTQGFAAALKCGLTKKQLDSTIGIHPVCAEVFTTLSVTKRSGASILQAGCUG", "conditions": "cited from earlier work"}, "glutaredoxin": {"target": "T2, glutaredoxin (Homo sapiens, UniProt P35754)", "T2 sequence (P35754 1-106)": "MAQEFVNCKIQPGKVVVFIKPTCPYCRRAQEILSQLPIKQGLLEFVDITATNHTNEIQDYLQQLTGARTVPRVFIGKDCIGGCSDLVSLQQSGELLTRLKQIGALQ", "conditions": "cited from earlier work"}}, "data": [{"smiles": "COc1c(Cl)cc2c(c1OC)N(C)[C@@H]1N3C(=O)[C@@]4(C)SS[C@@]3(C(=O)N4C)[C@H](O)[C@]21O", "note": "[sporidesmin]", "values": [{"measurement": "TrxR1 inhibition", "setting": "TrxR1", "value": "not to significantly inhibit TrxR1"}, {"measurement": "glutaredoxin inhibition", "setting": "glutaredoxin", "value": "inhibitor of glutaredoxin"}]}]}
